In ChEMBL document CHEMBL3997825, “Discovery of 2-oxopiperazine dengue inhibitors by scaffold morphing of a phenotypic high-throughput screening hit” (Bioorg Med Chem Lett, 2017):

Key:
Format in all cases: functional, cell-based
dengue virus type 2 [1] = assay: Antiviral activity against DENV2 TSVO1 infected in C6/36 cells assessed as reduction in viral titer after 72 hrs by plaque assay; conditions: TSVO1, C6/36, 72 h
dengue virus type 3 = assay: Antiviral activity against DENV3 H87 infected in BHK21 cells assessed as reduction in viral titer after 72 hrs by plaque assay; conditions: H87, BHK-21, 72 h
dengue virus type 2 [2] = assay: Antiviral activity against DENV2 New Guinea C infected in human A549 cells assessed as reduction in viral titer after 48 hrs by plaque assay; conditions: Thailand/NGS-C/1944, A549, 48 h
dengue virus type 4 = assay: Antiviral activity against DENV4 H241 infected in BHK21 cells assessed as reduction in viral titer after 72 hrs by plaque assay; conditions: H241, BHK-21, 72 h
dengue virus type 1 = assay: Antiviral activity against DENV1 West Pacific infected in BHK21 cells assessed as reduction in viral titer after 48 hrs by plaque assay; conditions: BHK-21, 48 h

Measured: EC50

COc1ccc(-c2csc(NC(=O)c3cc(C(C)(C)C)cc(C(C)(C)C)c3)n2)cc1
1 to 4.1 µM: all assays above
